This note sets out measurements from ChEMBL document CHEMBL3507680, “University of Dundee, Gates Library screen for HepG2 cell viability”.

The data set can be described thus: Human HepG2 cell viability assay in 384 well format. Particulars: HepG2 cells, read-out: Inhibition. More on the design: dose 125 nL, time 70.5 hour; cytotoxicity at 70.5 h: concentration not given beside the values. Type of data set: toxicity, cell-based.

On to `O=C(NCc1ccco1)Nc1cccc(S(=O)(=O)C(F)F)c1`, for which the cytotoxicity at 70.5 h is -8.46%.

Regarding `COc1ccccc1C(C)CC(=O)N1CCN(S(N)(=O)=O)CC1` (stereo unspecified), the cytotoxicity at 70.5 h is -3.69%.

For `CC(C)(C)[S+]([O-])CCNC(=O)c1ccc(Cl)c2cccnc12` (stereo unspecified), the cytotoxicity at 70.5 h was -6.1%.

On to `O=C(CNc1ccccc1S(=O)(=O)C(F)F)NCc1ccco1`, for which the cytotoxicity at 70.5 h was -5.76%.

Take `CC(=O)N1CCN(C2CCCCc3ccccc32)CC1` (stereo unspecified): the cytotoxicity at 70.5 h was -1.72%.

For `NC(=O)N1CCCN(C2CCCCc3ccccc32)CC1` (stereo unspecified), the cytotoxicity at 70.5 h is -1.64%.

Turning to `O=C(c1ccc2c(c1)[nH]c(=O)n2C1CCCC1)N1CCC1`, the cytotoxicity at 70.5 h is -3.8%.

With `O=C(NCC1(O)CCOC1)NCC1(c2ccccc2Cl)CC1` (stereo unspecified), the cytotoxicity at 70.5 h was -2.47%.

In the case of `O=C(NCC1(O)CCOC1)NCC1(c2ccccc2Cl)CCC1` (stereo unspecified), the cytotoxicity at 70.5 h was 0.471%.

For the molecule `Cn1cc(CCCN2CCN(C(=O)c3cccc(O)c3)CC2)cn1`, the cytotoxicity at 70.5 h is -3.56%.

For `CC(=O)N1CCCN(C2CCCCc3ccccc32)CC1` (stereo unspecified), the cytotoxicity at 70.5 h is -3.31%.

Regarding `O=C(c1ccsc1)N1CCN(CC(O)c2cccc(F)c2)CC1` (stereo unspecified), the cytotoxicity at 70.5 h is 9.92%.

As to `Cc1ccccc1C(C)CC(=O)N1CC[C@H](O)C1` (stereo partly specified), the cytotoxicity at 70.5 h is -2.39%.

On to `O=C(NCC1(O)CCOC1)c1ccccc1Cl` (stereo unspecified), for which the cytotoxicity at 70.5 h is -3.89%.

`COc1ccc(CC2CCCN2CCCC#N)cc1` (stereo unspecified): the cytotoxicity at 70.5 h was -4.33%.

Consider `CC(=O)N1CCN(C2CCc3ccccc32)CC1` (stereo unspecified), for which the cytotoxicity at 70.5 h was -2.55%.

`COCCN1CCC(CNC(=O)C2(C#N)CCCCC2)CC1`: the cytotoxicity at 70.5 h is -8.47%.

Consider `O=C(c1cccs1)N1CCN(C(=O)c2ncoc2-c2ccco2)CC1`, for which the cytotoxicity at 70.5 h was determined as 5.95%.

Regarding `CC(Oc1ccccc1C#N)C(=O)NC1CC1` (stereo unspecified), the cytotoxicity at 70.5 h was -8.65%.

For the molecule `CN(Cc1c(F)cccc1Cl)C(=O)CN(C)C1CCc2ccccc21` (stereo unspecified), the cytotoxicity at 70.5 h was -5.53%.

Consider `Cc1ccsc1CNC(=O)c1ccc(N2CCNC2=O)cc1`, for which the cytotoxicity at 70.5 h is -10.8%.

As for `CCc1ccc(CNC(=O)c2ccc(N3CCOC3=O)cc2)s1`, the cytotoxicity at 70.5 h is 20.2%.

Turning to `CC(NC(=O)NCCc1cnn(C)c1)c1ccc(Cl)s1` (stereo unspecified), the cytotoxicity at 70.5 h was -15%.

With `N#Cc1ccc(CN(CC(N)=O)C2CCCC2)cc1`, the cytotoxicity at 70.5 h was -9.26%.

For `Cc1ccc(-c2nc(CN(C)C3CCS(=O)(=O)C3)cs2)o1` (stereo unspecified), the cytotoxicity at 70.5 h was -8.59%.

Turning to `COc1ccc(N2CCCN(CC(=O)N3CCNC(=O)C3)CC2)cc1`, the cytotoxicity at 70.5 h was -8.51%.

Take `N#Cc1cccnc1N1CCCN(CC(=O)N2CCNC(=O)C2)CC1`: the cytotoxicity at 70.5 h was -5.07%.

For `CCc1nc(CN2CCCC(Nc3ncnc4ccsc34)C2)no1` (stereo unspecified), the cytotoxicity at 70.5 h is -8.27%.

On to `N#Cc1ccccc1CN(CC(N)=O)C1CCCC1`, for which the cytotoxicity at 70.5 h was -7.95%.

`Cc1nc(CN2CCCC(Nc3ncnc4ccsc34)C2)no1` (stereo unspecified): the cytotoxicity at 70.5 h is -9.16%.

Take `O=C(CCC(=O)c1cccs1)NC1(C(=O)NCC2CC2)CCCC1`: the cytotoxicity at 70.5 h is -1.16%.

`O=C1C(Nc2ccc3nccnc3n2)CCN1c1ccccc1F` (stereo unspecified): the cytotoxicity at 70.5 h is -9.82%.

Take `O=C1C(Nc2ccc3nccnc3n2)CCN1c1ccccc1` (stereo unspecified): the cytotoxicity at 70.5 h is -6.11%.

`C=C(C)COCCNC(=O)Nc1cccc(Cn2nc(C)nc2C)c1`: the cytotoxicity at 70.5 h worked out at 19.9%.

As to `O=C1CC(Nc2ccc3nccnc3n2)CN1c1ccccc1` (stereo unspecified), the cytotoxicity at 70.5 h is -2.9%.

With `Cc1noc(-c2cccnc2N(C)Cc2cc(C)on2)n1`, the cytotoxicity at 70.5 h was -7.15%.

For the molecule `Cc1csc(C2(NCc3nnc(-c4ccco4)o3)CCCC2)n1`, the cytotoxicity at 70.5 h came to 0.188%.

`CCn1c(CN(C)CC(F)(F)F)nc2c(F)cccc21`: the cytotoxicity at 70.5 h was -0.949%.

With `Cc1nccn1C1CCCN(C(=O)Cn2ccc(=O)n(C)c2=O)C1` (stereo unspecified), the cytotoxicity at 70.5 h is -14.6%.

`CC(NCCCc1cnn(C)c1)c1ccc(Cl)s1` (stereo unspecified): the cytotoxicity at 70.5 h was determined as 2.71%.

As to `CO[C@H]1CO[C@@]2(CCCN(C(=O)N3CCCC3)C2)C1`, the cytotoxicity at 70.5 h came to 1.63%.

For the molecule `Cn1cccc1C(=O)N1CCO[C@@H]2CN(Cc3ccco3)C[C@@H]2C1`, the cytotoxicity at 70.5 h was -5.04%.

For `CNC(=O)NCC1CCC2(CCN(c3ncccn3)CC2)CO1` (stereo unspecified), the cytotoxicity at 70.5 h is -3.53%.

In the case of `CCOCC(=O)N1CCc2nc(C)nc(NC(C)C)c2CC1`, the cytotoxicity at 70.5 h was found to be 16%.

For `CCS(=O)(=O)N1C[C@@H](c2ccccc2)[C@@]2(CCNC2=O)C1`, the cytotoxicity at 70.5 h was -4.06%.

In the case of `O=C(c1ccoc1)N1CCC2(CCCN(c3ncc(F)cn3)C2)C1` (stereo unspecified), the cytotoxicity at 70.5 h is -1.48%.

With `CCN1CCO[C@@H]2CN(C(=O)NCc3ccccc3)CC[C@@H]2C1`, the cytotoxicity at 70.5 h was -4.68%.

Take `COC[C@@]12CCC[C@@H]1CN(C(=O)COc1ccccc1OC)C2`: the cytotoxicity at 70.5 h was -3.63%.

`NC(=O)C1Cn2ccnc2C2(CCN(C(=O)c3ccncc3)CC2)O1` (stereo unspecified): the cytotoxicity at 70.5 h was -4.78%.

Turning to `O=C([C@@H]1CCCO1)N1CCN(Cc2ccncc2)c2ncccc2C1`, the cytotoxicity at 70.5 h is -0.675%.

Consider `CN(C)Cc1nc2c(o1)CN(C(=O)c1ccncc1F)C2`, for which the cytotoxicity at 70.5 h was -8.38%.

In the case of `CNC(=O)[C@H]1C[C@@H]2CN(C(=O)c3ccc(C)nc3)C[C@@H]2N1C`, the cytotoxicity at 70.5 h was -15.1%.

On to `Cc1nccc(NCc2cncc3c2CCN(CC2CCOC2)C3)n1` (stereo unspecified), for which the cytotoxicity at 70.5 h amounted to 5.73%.

Consider `CC(C)N(C)Cc1cncc2c1CCN(Cc1ccoc1)C2`, for which the cytotoxicity at 70.5 h was -1.23%.

Turning to `CN(C)Cc1cncc2c1CCN(Cc1ccoc1)C2`, the cytotoxicity at 70.5 h is -4.55%.

With `Cc1noc(C)c1CN1CCc2ncnc(-c3ccc(F)cc3)c2CC1`, the cytotoxicity at 70.5 h amounted to 2.47%.

As for `CNC(=O)NCC1CCC2(CCN(C(=O)c3cccnc3)CC2)CO1` (stereo unspecified), the cytotoxicity at 70.5 h was 3.36%.

Turning to `Cc1noc(C)c1CN1CCC2(CC1)C(c1ccccc1)CC(=O)N2C` (stereo unspecified), the cytotoxicity at 70.5 h was -1.86%.

With `CS(=O)(=O)N1CCC2(CC1)CN(CC1CCOC1)c1ccccc12` (stereo unspecified), the cytotoxicity at 70.5 h was determined as 5.41%.

Take `O=C(c1ccsc1)N1CCO[C@@H]2CN(Cc3ccco3)CC[C@@H]2C1`: the cytotoxicity at 70.5 h is 0.973%.

As to `O=C(Cc1cccc(F)c1)N1CCc2ncnc(NC3CC3)c2CC1`, the cytotoxicity at 70.5 h came to 1.87%.

As for `CN1CCO[C@@H]2CN(C(=O)NCc3ccccc3)CC[C@@H]2C1`, the cytotoxicity at 70.5 h amounted to 9.51%.

`CCn1ncc2c1C(COC)N(C(=O)c1cscn1)CC2` (stereo unspecified): the cytotoxicity at 70.5 h is 6.98%.

Consider `O=C(COC[C@@]12CCC[C@@H]1CN(C1CCCC1)C2)N1CCCC1`, for which the cytotoxicity at 70.5 h was -1.08%.

As to `CCn1ncc2c1C(COC)N(C(=O)c1cccs1)CC2` (stereo unspecified), the cytotoxicity at 70.5 h was found to be 0.803%.

Consider `CCn1ncc2c1C(COC)N(C(=O)c1ccsc1)CC2` (stereo unspecified), for which the cytotoxicity at 70.5 h is -6.73%.

As to `CCN1C[C@H]2C3(CCN(S(C)(=O)=O)CC3)CC[C@@]2(C(=O)N(C)C)C1`, the cytotoxicity at 70.5 h was -9.68%.

`CCN1C[C@H]2C3(CCN(C(=O)NC(C)C)CC3)CC[C@@]2(C(=O)N(C)C)C1`: the cytotoxicity at 70.5 h was -8.21%.

Regarding `O=C(NCc1ccccn1)[C@@]12CCO[C@@H]1CCN(C1CCCC1)C2`, the cytotoxicity at 70.5 h is -1.56%.

`Fc1cccc(CN2CCOC3(COCCN(CC4CC4)C3)C2)c1` (stereo unspecified): the cytotoxicity at 70.5 h is -8.93%.

Consider `O=C(c1ccncc1F)N1Cc2nc(CN3CCCCC3)oc2C1`, for which the cytotoxicity at 70.5 h is -8.64%.
